What all share (type): biochemical
In assay [1] the target is T1, procaspase-7 (Homo sapiens, UniProt P55210).
T1 construct: His6 (C); made in house; host or cells: E. coli BL21(DE3)RP, pET-21b
T1 sequence (P55210 1-303): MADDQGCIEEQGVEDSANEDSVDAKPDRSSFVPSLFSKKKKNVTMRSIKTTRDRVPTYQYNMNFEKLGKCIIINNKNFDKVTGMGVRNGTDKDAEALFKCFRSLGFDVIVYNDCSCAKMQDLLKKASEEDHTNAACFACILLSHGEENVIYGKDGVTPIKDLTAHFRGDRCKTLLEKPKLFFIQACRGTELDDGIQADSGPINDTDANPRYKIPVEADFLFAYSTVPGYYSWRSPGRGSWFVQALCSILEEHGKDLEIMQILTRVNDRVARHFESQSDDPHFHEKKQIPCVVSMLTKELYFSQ
Briefly: Executioner procaspase-7 activation assay (Ac-DEVD-AFC fluorogenic substrate). As to conditions: incubation with compound for 5 h at 37° C.; 100 nM procaspase. The method in brief: (§1)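 Procaspase at 100 nM incubated with compound (100 nM–100 μM) in 50 mM HEPES pH 7.4, KCl, DTT, 0.01% Triton X-100, 3% DMSO, 37 °C for 5 h; then 25 μM Ac-DEVD-AFC (procaspase-7) or Ac-VEID-AFC (procaspase-6), kinetic fluorescence 30 min (ex 365/em 495); EC50 reported.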

Assay [2] deals with T2, procaspase-6 (Homo sapiens, UniProt P55212).
T2 sequence (P55212 1-293): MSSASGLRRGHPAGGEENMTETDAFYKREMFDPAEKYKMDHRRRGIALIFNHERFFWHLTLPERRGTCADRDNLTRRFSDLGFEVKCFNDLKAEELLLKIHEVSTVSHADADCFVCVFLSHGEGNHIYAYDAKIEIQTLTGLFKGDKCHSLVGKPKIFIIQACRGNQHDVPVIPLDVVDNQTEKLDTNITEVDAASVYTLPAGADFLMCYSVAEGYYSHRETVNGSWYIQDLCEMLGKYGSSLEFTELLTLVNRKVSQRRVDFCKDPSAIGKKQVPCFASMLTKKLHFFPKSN
Briefly: Executioner procaspase-6 activation assay (Ac-VEID-AFC fluorogenic substrate). As to conditions: incubation with compound for 5 h at 37° C.; 100 nM procaspase. In short, it runs like this:
as §1

For assay [3], the target named is T3, procaspase-3 (Homo sapiens, UniProt P42574).
T3 construct: His6 (C); made in house; host or cells: E. coli BL21(DE3)RP, pET-23b
T3 sequence (P42574 1-277): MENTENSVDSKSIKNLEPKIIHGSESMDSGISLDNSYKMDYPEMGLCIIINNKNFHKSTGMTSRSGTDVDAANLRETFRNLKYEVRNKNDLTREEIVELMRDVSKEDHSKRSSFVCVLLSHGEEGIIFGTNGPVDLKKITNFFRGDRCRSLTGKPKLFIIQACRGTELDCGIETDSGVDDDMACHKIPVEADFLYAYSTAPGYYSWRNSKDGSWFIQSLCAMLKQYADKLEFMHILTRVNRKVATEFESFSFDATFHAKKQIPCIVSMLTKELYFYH
Briefly: Executioner procaspase-3 activation assay (Ac-DEVD-AFC fluorogenic substrate). In short, it runs like this:
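Procaspase-3 at 100 nM was incubated with activating compounds (100 nM to 100 uM) in 50 mM HEPES pH 7.4, 50 mM KCl, 1 mM DTT and 0.01% Triton-X100, the detergent limiting aggregation artefacts. Protein, substrate and inhibitor were kept as frozen aliquots and thawed just before use.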

Where [4] appears, read: incubation with compound for 5 h at 37° C., 100 nM procaspase, read-out: Procaspase Activation 3.

The results in this text go back to patent US8642788B2, “Activators of executioner procaspases 3, 6 and 7” (The Regents of the University of California, priority 2008, dated 2014).

Like-named read-outs stand apart in the source and are kept apart here.

Regarding `COc1cccc2cc(C(=O)Nc3cccc(-c4cnn(Cc5ccccc5)c4)c3)c(=O)oc12` [compound 170, 8-Methoxy-2-oxo-2H-chromene-3-carboxylic acid [3-(1-benzyl-1H-pyrazol-4-yl)-phenyl]-amide], the EC50 in assay [1], in assay [2] and in assay [3] (setting [4]) was > 100 µM each time.
On to `O=C(Nc1cccc(-c2ccccc2S(=O)(=O)N2CCOCC2)c1)c1cc2cccc(OC(F)(F)F)c2oc1=O` [compound 100, 8-Trifluoromethoxy-2-oxo-2H-chromene-3-carboxylic acid (2′-(Morpholine-4-sulfonyl)-biphenyl-3-yl)-amide], for which the EC50 in assay [1], in assay [2] and in assay [3] (setting [4]) was > 100 µM in each case.
As to `Cn1cc(-c2cccc(NC(=O)c3cc4cccc(O)c4oc3=O)c2)cn1` [compound 171, 8-Hydroxy-2-oxo-2H-chromene-3-carboxylic acid [3-(1-methyl-1H-pyrazol-4-yl)-phenyl]-amide], the EC50 in assay [1], in assay [2] and in assay [3] (setting [4]) was > 100 µM in each case.
With `COc1cccc2cc(C(=O)Nc3cccc(-c4cccc(C#N)c4)c3)c(=O)oc12` [compound 148, 8-Methoxy-2-oxo-2′-chromene-3-carboxylic acid (3′-cyano-biphenyl-3-yl)-amide], the EC50 in assay [1], in assay [2] and in assay [3] (setting [4]) was > 100 µM each time.
In the case of `O=C(Nc1cccc(-c2ccn[nH]2)c1)c1cc2cccc(O)c2oc1=O` [compound 155, 8-Hydroxy-2-oxo-2H-chromene-3-carboxylic acid [3-(2H-pyrazol-3-yl)-phenyl]-amide], the EC50 in assay [1], in assay [2] and in assay [3] (setting [4]) was > 100 µM throughout.
For the molecule `COc1ncc(-c2cccc(NC(=O)c3cc4cccc(OC)c4oc3=O)c2)c(OC)n1` [compound 128, 8-Methoxy-2-oxo-2H-chromene-3-carboxylic acid [3-(2,4-dimethoxy-pyrimidin-5-yl)-phenyl]-amide], the EC50 in assay [1], in assay [2] and in assay [3] (setting [4]) was > 100 µM in each case.
Turning to `COc1ccc(-c2cccc(NC(=O)c3cc4cccc(O)c4oc3=O)c2)cc1OC` [compound 53, 8-Hydroxy-2-oxo-2H-chromene-3-carboxylic acid (3′,4′-Dimethoxy-biphenyl-3-yl)-amide], the EC50 in assay [1] is 0.5 to 10 µM; in assay [2], > 100 µM; in assay [3] (setting [4]), > 100 µM.
Turning to `CCOc1ncccc1-c1cccc(NC(=O)c2cc3cccc(OC(F)(F)F)c3oc2=O)c1` [compound 43, 8-Trifluoromethoxy-2-oxo-2H-chromene-3-carboxylic acid [3-(2-ethoxy-pyridin-3-yl)-phenyl]-amide], the EC50 in assay [1], in assay [2] and in assay [3] (setting [4]) was > 100 µM each time.
As for `O=C(Nc1cccc(-c2ccc3c(c2)CCO3)c1)c1cc2cccc(O)c2oc1=O` [compound 74, 8-Hydroxy-2-oxo-2H-chromene-3-carboxylic acid [3-(2,3-Dihydro-benzofuran-5-yl)-phenyl]-amide], the EC50 in assay [1] is 10 to 50 µM; in assay [2], > 100 µM; in assay [3] (setting [4]), > 100 µM.
Consider `N#Cc1cc(-c2cccc(NC(=O)c3cc4cccc(O)c4oc3=O)c2)ccc1F` [compound 145, 8-Hydroxy-2-oxo-2H-chromene-3-carboxylic acid (3′-cyano-4′-fluoro-biphenyl-3-yl)-amide], for which the EC50 in assay [1], in assay [2] and in assay [3] (setting [4]) was > 100 µM each time.
For `O=C(Nc1cccc(-c2ccc(O)nc2)c1)c1cc2cccc(O)c2oc1=O` [compound 139, 8-Hydroxy-2-oxo-2H-chromene-3-carboxylic acid [3-(6-hydroxy-pyridin-3-yl)-phenyl]-amide], the EC50 in assay [1], in assay [2] and in assay [3] (setting [4]) was > 100 µM each time.
In the case of `Cn1nccc1-c1cccc(NC(=O)c2cc3cccc(O)c3oc2=O)c1` [compound 151, 8-Hydroxy-2-oxo-2H-chromene-3-carboxylic acid [3-(2-methyl-2H-pyrazol-3-yl)-phenyl]-amide], the figures for the EC50 in assay [1], in assay [2] and in assay [3] (setting [4]) were 10 to 50 µM, > 100 µM and 10 to 50 µM, respectively.
In the case of `O=C(Nc1cccc(-c2ccccc2S(=O)(=O)N2CCOCC2)c1)c1cc2cccc(O)c2oc1=O` [compound 98, 8-Hydroxy-2-oxo-2H-chromene-3-carboxylic acid (2′-(Morpholine-4-sulfonyl)-biphenyl-3-yl)-amide], the results for the EC50 in assay [1], in assay [2] and in assay [3] (setting [4]) were 10 to 50 µM, > 100 µM and 10 to 50 µM, respectively.
Consider `COc1ccc(OC)c(-c2cccc(NC(=O)c3cc4cccc(OC)c4oc3=O)c2)c1` [compound 57, 8-Methoxy-2-oxo-2H-chromene-3-carboxylic acid (2′,5′-dimethoxy-biphenyl-3-yl)-amide], for which the EC50 in assay [1], in assay [2] and in assay [3] (setting [4]) was > 100 µM each time.
For `COc1ccc(OC)c(-c2cccc(NC(=O)c3cc4cccc(OC(F)(F)F)c4oc3=O)c2)c1` [compound 58, 8-Trifluoromethoxy-2-oxo-2H-chromene-3-carboxylic acid (2′,5′-dimethoxy-biphenyl-3-yl)-amide], the EC50 in assay [1], in assay [2] and in assay [3] (setting [4]) was > 100 µM in each case.
Turning to `COc1cccc2cc(C(=O)Nc3cccc(-c4cc5ccccc5n4C(=O)OC(C)(C)C)c3)c(=O)oc12` [compound 176, 2-{3-[(8-Methoxy-2-oxo-2H-chromene-3-carbonyl)-amino]-phenyl}-indole-1-carboxylic acid tert-butyl ester], the EC50 in assay [1], in assay [2] and in assay [3] (setting [4]) was > 100 µM in each case.
Regarding `O=C(Nc1cccc(-c2ccc3c(c2)OCO3)c1)c1cc2cccc(OC(F)(F)F)c2oc1=O` [compound 64, 8-Trifluoromethoxy-2-oxo-2H-chromene-3-carboxylic acid (3-Benzo[1,3]dioxol-5-yl-phenyl)-amide], the EC50 in assay [1], in assay [2] and in assay [3] (setting [4]) was > 100 µM throughout.
`O=C(Nc1cccc(-c2ccccc2OC(F)(F)F)c1)c1cc2cccc(OC(F)(F)F)c2oc1=O` [compound 73, 8-Trifluoromethoxy-2-oxo-2H-chromene-3-carboxylic acid (2′-trifluoromethoxy-biphenyl-3-yl)-amide]: the EC50 in assay [1], in assay [2] and in assay [3] (setting [4]) was > 100 µM throughout.
In the case of `COc1cccc2cc(C(=O)Nc3cccc(-c4cc(F)cc(F)c4)c3)c(=O)oc12` [compound 178, 8-Methoxy-2-oxo-2H-chromene-3-carboxylic acid (3′,5′-difluoro-biphenyl-3-yl)-amide], the values for the EC50 in assay [1], in assay [2] and in assay [3] (setting [4]) were > 100 µM, 10 to 50 µM and > 100 µM, respectively.
On to `CCOc1ccc(-c2cccc(NC(=O)c3cc4cccc(O)c4oc3=O)c2)cc1` [compound 68, 8-Hydroxy-2-oxo-2H-chromene-3-carboxylic acid (4′-Ethoxy-biphenyl-3-yl)-amide], for which the EC50 in assay [1], in assay [2] and in assay [3] (setting [4]) was > 100 µM in each case.
As to `COc1cccc2cc(C(=O)Nc3cccc(-c4ccc5[nH]ccc5c4)c3)c(=O)oc12` [compound 93, 8-Methoxy-2-oxo-2H-chromene-3-carboxylic acid (3-(1H-Indol-5-yl)-phenyl)-amide], the EC50 in assay [1], in assay [2] and in assay [3] was > 100 µM each time.
For the molecule `O=C(Nc1cccc(-c2ccc3cc[nH]c3c2)c1)c1cc2cccc(O)c2oc1=O` [compound 165, 8-Hydroxy-2-oxo-2H-chromene-3-carboxylic acid [3-(1H-indol-6-yl)-phenyl]-amide], the EC50 in assay [1], in assay [2] and in assay [3] was > 100 µM throughout.
